Like-named read-outs stand apart in the source and are kept apart here. One block for each molecule: values may come before it.
What was measured:
Assay type in all cases: cell-based
[1] = tested on: Human Colon Cancer HCT-116; test: Cell proliferation experiment (Alarm blue, 72 h, EC50); details: HCT116 cells
Procedure, shortened: (§1)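 Duplicate wells per concentration, 5-fold dilution series, 72 h continuous exposure of log-phase cells; read-out Alamar blue fluorescence, EC50 derived by curve fit with minimum, maximum and slope terms.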

[2] = tested on: Human Monocytic Leukemia MV4-11; test: as above
Procedure, shortened: as §1

[3] = tested on: Human Small Cell Lung Cancer NCI-H82; test: as above; details: NCIH82 cells
Procedure, shortened: as §1

[4] = tested on: Human cervical adenocarcinoma cells Hela; test: as above
Procedure, shortened: as §1

[5] = target: T1, BRD4 (Homo sapiens, UniProt O60885); test: Western blot, protein degradation (DC50)
T1 construct: endogenous in cells
Method: (§2) Cells were treated with the compound for a period of time, after that the cells were collected by centrifugation. After washing with PBS, the cells were lysed by adding RIPA buffer; the cell lysate were added to the loading buffer and then appropriate volume were taken and slowly added to the corresponding wells of the gel plate, and run the SDS-PAGE gel (4%-12%). After running the gel, transferred to the PVDF membrane and sealed with 5% skimmed milk powder at room temperature for 1 hour. The membrane was placed in the primary antibody diluted with 5% skimmed milk powder and shaked slowly overnight at 4° C. After incubation with primary antibody, the membrane was washed 3 times using a TBST shaker; added secondary antibody diluted with 5% skimmed milk powder corresponding to the primary antibody, and shaked slowly at room temperature for 1 hour. After incubation with secondary antibody, the membrane was washed 3 times using the TBST shaker again. The PVDF membrane was flatted in the cassette, the strip was evenly infiltrated with ECL developer solution, and placed in ChemDoc XRS+ gel imager for taking pictures. The intensity of protein bands was analyzed quantitatively using ImageJ software.

[6] = target: T2, PLK1 (Homo sapiens, UniProt P53350); test: Western blot, protein degradation (DC50)
T2 construct: endogenous in cells
T2 sequence (P53350 whole entry): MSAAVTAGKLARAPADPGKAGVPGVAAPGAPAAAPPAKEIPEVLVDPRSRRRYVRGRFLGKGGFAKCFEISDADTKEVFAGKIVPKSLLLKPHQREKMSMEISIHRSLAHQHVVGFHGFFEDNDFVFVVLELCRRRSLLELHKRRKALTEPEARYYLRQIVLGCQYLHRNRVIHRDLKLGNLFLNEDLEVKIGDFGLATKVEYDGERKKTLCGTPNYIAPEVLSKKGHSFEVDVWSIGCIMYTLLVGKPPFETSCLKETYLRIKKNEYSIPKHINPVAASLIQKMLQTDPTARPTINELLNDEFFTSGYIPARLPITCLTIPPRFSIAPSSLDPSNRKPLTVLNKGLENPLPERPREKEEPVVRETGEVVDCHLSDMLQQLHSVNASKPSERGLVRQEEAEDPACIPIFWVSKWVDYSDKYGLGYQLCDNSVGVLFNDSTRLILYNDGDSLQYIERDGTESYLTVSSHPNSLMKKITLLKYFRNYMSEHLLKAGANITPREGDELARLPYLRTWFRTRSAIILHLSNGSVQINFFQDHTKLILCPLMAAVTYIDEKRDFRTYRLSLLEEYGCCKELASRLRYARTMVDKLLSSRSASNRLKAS
Method: as §2

[7] = tested on: Human Colon Cancer HT-29; test: Cell proliferation experiment (Alarm blue, 72 h, EC50); details: HT-29 cells
Procedure, shortened: as §1

[8] = tested on: Human Breast Cancer MDA-MB-231; test: as above; details: MDA-MB-231 cells
Procedure, shortened: as §1

[9] = tested on: Human Acute Myelomonocytic Leukemia HL-60; test: as above; details: HL-60 cells
Procedure, shortened: as §1

[10] = Homo sapiens, MV4-11, MV4;11 cells
[11] = 6 h, western blot, read-out: BRD4 DC50 (6 h)
[12] = 6 h, western blot, read-out: PLK1 DC50 (6 h)

EC50 ([1]; Homo sapiens, HCT-116): > 1000 nM | EC50 [2, 10]: 10 to 100 nM | EC50 ([3]; Homo sapiens, NCI-H82): > 1000 nM
Structure (SMILES): CC[C@@H]1C(=O)N(C)c2cnc(Nc3ccc(C(=O)NCCCNCCCCC(=O)Nc4cccc5c4CN(C4CCC(=O)NC4=O)C5=O)cc3OC)nc2N1Cc1ccc(Br)cc1 (stereo partly drawn) [UB-180638]

EC50 ([1]; Homo sapiens, HCT-116): > 1000 nM | EC50 [2, 10]: 10 to 100 nM | EC50 ([3]; Homo sapiens, NCI-H82): > 1000 nM
Structure (SMILES): CC[C@@H]1C(=O)N(C)c2cnc(Nc3ccc(C(=O)NCCOCCOCCOCCNCCCCCC(=O)Nc4cccc5c4CN(C4CCC(=O)NC4=O)C5=O)cc3OC)nc2N1Cc1ccc(Br)cc1 (stereo partly drawn) [UB-180644]

EC50 [1]: > 1000 nM | EC50 ([2]; MV4;11 cells): 10 to 100 nM | EC50 [3]: > 1000 nM
Structure (SMILES): CC[C@@H]1C(=O)N(C)c2cnc(Nc3ccc(C(=O)NCCOCCNCCCC(=O)Nc4cccc5c4CN(C4CCC(=O)NC4=O)C5=O)cc3OC)nc2N1Cc1ccc(Br)cc1 (stereo partly drawn) [UB-180626]

EC50 [2, 10]: 10 to 100 nM | EC50 ([4]; Homo sapiens): > 1000 nM | DC50 [5, 11]: > 1000 nM | DC50 [6, 12]: > 1000 nM
Structure (SMILES): CC[C@@H]1c2nncn2-c2cnc(Nc3ccc(C(=O)NCCOCCOCCOCCOCC(=O)N[C@H](C(=O)N4C[C@H](O)C[C@H]4C(=O)NCc4ccc(-c5scnc5C)cc4)C(C)(C)C)cc3OC)nc2N1C1CCCC1 [UB-180523]

EC50 ([7]; Homo sapiens): 100 to 1000 nM | EC50 [2, 10]: 10 to 100 nM
Structure (SMILES): CC[C@@H]1C(=O)N(C)c2cnc(Nc3ccc(C(=O)NCc4cn(CCNCC(=O)Nc5cccc6c5CN(C5CCC(=O)NC5=O)C6=O)nn4)cc3OC)nc2N1C1CCCC1 (stereo partly drawn) [UB-180691]

EC50 [8]: 100 to 1000 nM | EC50 [1]: 100 to 1000 nM | EC50 [7]: 100 to 1000 nM | EC50 [4]: 100 to 1000 nM
Structure (SMILES): CC[C@@H]1C(=O)N(C)c2cnc(Nc3ccc(C(=O)NC4CCN(CCOCCN(CC(=O)Nc5cccc6c5CN(C5CCC(=O)NC5=O)C6=O)C(=O)OC(C)C(C)SSC[C@@H](NC(=O)[C@@H](CC(=O)O)NC(=O)[C@@H](CC(=O)O)NC(=O)[C@@H](CCCNC(=N)N)NC(=O)[C@@H](CC(=O)O)NC(=O)CC[C@H](NC(=O)c5ccc(NCc6cnc7nc(N)[nH]c(=O)c7n6)cc5)C(=O)O)C(=O)O)CC4)cc3OC)nc2N1C1CCCC1 (stereo partly drawn) [UB-180838]

EC50 [9]: > 1000 nM | EC50 ([1]; Homo sapiens, HCT-116): 100 to 1000 nM | EC50 [2, 10]: 100 to 1000 nM | DC50 ([6]; 6 h, read-out: PLK1 DC50 (6 h)): < 10 nM
Structure (SMILES): O=C1CCC(N2Cc3c(NC(=O)CNCCOCCOCCOCCOCCNC(=O)[C@]4(Cc5cccc(Nc6nccs6)n5)CC[C@@H](Oc5cccc(Cl)c5F)CC4)cccc3C2=O)C(=O)N1 (stereo partly drawn) [UB-180802]

EC50 ([7]; Homo sapiens): 100 to 1000 nM | EC50 [2, 10]: 10 to 100 nM | DC50 ([5]; 6 h, read-out: BRD4 DC50 (nM) (6 h)): < 10 nM | DC50 ([5]; 24 h, read-out: BRD4 DC50 (nM) (24 h)): < 10 nM | DC50 ([6]; 6 h, read-out: PLK1 DC50 (nM) (6 h)): 10 to 100 nM | DC50 ([6]; 24 h, read-out: PLK1 DC50 (nM) (24 h)): < 10 nM
Structure (SMILES): CC[C@@H]1C(=O)N(C)c2cnc(Nc3ccc(C(=O)NCc4cn(CCNCCOCC(=O)Nc5cccc6c5CN(C5CCC(=O)NC5=O)C6=O)nn4)cc3OC)nc2N1C1CCCC1 (stereo partly drawn) [UB-180719]

EC50 ([1]; Homo sapiens, HCT-116): > 1000 nM | EC50 [2, 10]: 10 to 100 nM | EC50 ([3]; Homo sapiens, NCI-H82): > 1000 nM | DC50 ([5]; 24 h, read-out: BRD4 DC50 (24 h)): < 10 nM | DC50 ([6]; 24 h, read-out: PLK1 DC50 (24 h)): 100 to 1000 nM
Structure (SMILES): CC[C@@H]1C(=O)N(C)c2cnc(Nc3ccc(C(=O)NCCCNCCCCCCC(=O)Nc4cccc5c4CN(C4CCC(=O)NC4=O)C5=O)cc3OC)nc2N1Cc1ccc(Br)cc1 (stereo partly drawn) [UB-180627]

EC50 [9]: > 1000 nM | EC50 [2, 10]: 100 to 1000 nM
Structure (SMILES): O=C1CCC(N2Cc3c(NC(=O)CNCCOCCOCCOCCOCCNC(=O)c4ccc(Nc5ncc6c(n5)-c5ccc(Cl)cc5C(c5c(F)cccc5F)=NC6)cc4)cccc3C2=O)C(=O)N1 (stereo not drawn) [UB-180801]

EC50 [9]: > 1000 nM | EC50 [2, 10]: 100 to 1000 nM
Structure (SMILES): O=C1CCC(N2Cc3c(NC(=O)CNCCOCCOCCOCCNC(=O)c4ccc(Nc5ncc6c(n5)-c5ccc(Cl)cc5C(c5c(F)cccc5F)=NC6)cc4)cccc3C2=O)C(=O)N1 (stereo not drawn) [UB-180727]

EC50 [2, 10]: 10 to 100 nM | EC50 ([4]; Homo sapiens): > 1000 nM | DC50 [5, 11]: > 1000 nM | DC50 [6, 12]: > 1000 nM
Structure (SMILES): CC[C@@H]1c2c(C#N)ncn2-c2cnc(Nc3ccc(C(=O)NCCOCCOCCOCCC(=O)N[C@H](C(=O)N4C[C@H](O)C[C@H]4C(=O)NCc4ccc(-c5scnc5C)cc4)C(C)(C)C)cc3OC)nc2N1C1CCCC1 [UB-180529]

Reference: patent publication US20210369853A1, “TARGETED PROTEASE DEGRADATION PLATFORM” (EUBULUS BIOTHERAPEUTICS INC., priority 2018, published 2021)
